The source of these data is paper PMC6740044 (ACS Omega, 2019).

pKd: −log10 of the molar value. Bridge positions count the residues as written; N and C are the ends. Peptide text beside a SMILES is read from it.

In test [1] the target is Herceptin (human IgG1) (human). The test can be described thus: ITC.
In a further test the target is Herceptin (human IgG1) (Homo sapiens, UniProt P01857). The test can be described thus: Isothermal titration calorimetry. As to conditions: ITC, 25 °C, single-site binding model, measured three times. In general terms: Isothermal titration calorimetry measures the heat released or taken up as one component is titrated into another.
Herceptin (human IgG1), sequence (P01857 104-328): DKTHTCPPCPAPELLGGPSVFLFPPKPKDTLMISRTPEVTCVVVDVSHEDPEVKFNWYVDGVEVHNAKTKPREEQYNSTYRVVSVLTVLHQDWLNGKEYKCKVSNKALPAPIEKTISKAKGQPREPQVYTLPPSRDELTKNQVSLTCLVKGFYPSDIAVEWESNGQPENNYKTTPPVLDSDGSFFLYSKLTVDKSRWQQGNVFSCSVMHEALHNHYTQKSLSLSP
Test [2] deals with Herceptin (human IgG1) (human). Nature of the test: SPR. For orientation: In SPR one partner is held on a chip, and binding of the other changes the refractive index at the surface.

In the case of 15-Lys8Tle (peptide), the pKd – broadly, the Kd on a negative log10 scale, so that one unit is a factor of ten – in test [1] is 6.70.

For the molecule `CC(=O)N[C@@H](CC(=O)O)C(=O)N[C@H]1CSSC[C@@H](C(=O)N[C@H](C(=O)N[C@@H](Cc2ccccc2)C(=O)N[C@@H](Cc2c[nH]cn2)C(N)=O)[C@@H](C)O)NC(=O)[C@H](Cc2c[nH]c3ccccc23)NC(=O)[C@H](C(C)C)NC(=O)[C@H](CC(C)C)NC(=O)[C@H](CCC(=O)O)NC(=O)CNC(=O)[C@H](CCCCN)NC(=O)[C@H](Cc2c[nH]cn2)NC(=O)[C@H](Cc2ccc(O)cc2)NC(=O)[C@H](C)NC1=O` [15-IgBP] (Ac-DCAYHKGELVWCTFH-NH2; disulfide 2-12), on Herceptin (human IgG1), the ΔG result is recorded as “–9.1 ± 0.0 kcal/mol”, the ΔH result was “–13 ± 0 kcal/mol” and the “–TΔS” value is reported as 3.5 ± 0.1 kcal/mol.

In test [2], 15-Lys8Phe (peptide) gave a pKd of 7.40.
